In paper PMC5585240, “NF-κB inhibitors, unique γ-pyranol-γ-lactams with sulfide and sulfoxide moieties from Hawaiian plant Lycopodiella cernua derived fungus Paraphaeosphaeria neglecta FT462” (Scientific Reports, 2017):
“Also recorded” adds a separate entry of the source. Where two headings read alike, the source gives them in different places.

Key:
[1] = Cytotoxicity in the iNOS assay; type: cell-based; conditions: mouse, RAW 264.7 cells
[2] = Cytotoxicity under the same conditions as the NF-κB assay; type: cell-based; conditions: human
E. coli JW2496 (∆bamB) = assay: Antibacterial microbroth dilution assay; type: cell-based; conditions: 20 μg/mL (maximum test concentration)
Description: MIC values were determined against E. coli JW2496 (∆bamB) and other bacteria using the standard microbroth dilution method exactly as previously described, which is based on the methods by the Clinical and Laboratory Standards Institute[41], [42]. The maximum test concentration used was 20 μg/mL.

NF-κB = assay: TNF-α-induced NF-κB luciferase reporter assay in human embryonic kidney cells 293; type: cell-based; conditions: 293 cells, 6 h, read-out: NF-κB inhibition IC50
Description: We employed human embryonic kidney cells 293, Panomic for monitoring changes occurring along the NF-κB pathway. Stable constructed cells were seeded into 96-well plates at 20 × 10^3 cells per well. Cells were maintained in Dulbecco’s modified Eagle’s medium (DMEM) (Invitrogen Co.), supplemented with 10% FBS, 100 units/mL penicillin, 100 μg/mL streptomycin, and 2 mM L-glutamine. After 48 h incubation, the medium was replaced and the cells were treated with various concentrations of test substances. TNF-α (human, recombinant, E. coli, Calbiochem) was used as an activator at a concentration of 2 ng/mL (0.14 nM). The plate was incubated for 6 h. Spent medium was discarded, and the cells were washed once with PBS. Cells were lysed using 50 μL (for 96-well plate) of reporter lysis buffer from Promega by incubating for 5 min on a shaker, and stored at −80 °C. The luciferase assay was performed using the Luc assay system from Promega. The gene product, luciferase enzyme, reacts with luciferase substrate, emitting light, which was detected using a luminometer (LUMIstar Galaxy BMG). Data for NF-κB inhibition are expressed as IC50 values (i.e., concentration required to inhibit TNFinduced NF-kB activity by 50%). The known NF-κB inhibitor TPCK was used as a positive control.

iNOS = assay: Nitric oxide (iNOS) assay in LPS-stimulated RAW 264.7 cells, Griess reagent; type: cell-based; conditions: Mus musculus, RAW264.7; lipopolysaccharide-stimulated (1 μg/mL, 20 h) RAW 264.7 cells, nitrite; read-out: iNOS inhibition IC50
Description: RAW 264.7 cells (1 × 10^4 cells/well) were seeded and incubated in 96-well culture plates at 37 °C, 5% CO2 in humidified air for 24 h. Then, complete medium was replaced with phenol red-free medium containing various concentrations of the test compounds, followed by LPS stimulation (1 μg/mL) for 20 h. The nitrite released in the culture media was reacted with Griess reagent, and the absorbance was measured at 540 nm. The amount of nitrite was calculated using a standard curve of known nitrite concentration versus absorbance at 540 nm. TPCK was used as a positive control. IC50 values were calculated using Table Curve 2D Windows V4.07 by AISN Software Inc[44].

STAT3 = tested on: STAT3; parameters: method as in PMID 26107089, PMID 16928075; conditions: cited from earlier work
[3] = Homo sapiens, HEK293, TNF-α (2 ng/mL) induced NF-κB activity

SMILES | IC50 (iNOS) [µM] | IC50 at 20 h [1] [µM] | IC50 at 6 h [2] [µM] | inhibition of E. coli JW2496 (E. coli JW2496 (∆bamB)) | IC50 (NF-κB; [3]) [µM] | IC50 (NF-κB; TNF-α (2 ng/mL) induced NF-κB activity) [µM] | STAT3 inhibition (STAT3)
CCCCC[C@@H]1OC2=C(C(=O)N(OC)[C@@H]2CSC[C@@H](O)C(=O)O)[C@H](O)[C@@]1(C)O [Compound 1, Paraphaeosphaeride E] | 47.9 ± 0.03 | > 50 | > 50 | mildly inhibited | 7.1 | – | –
Cc1ccc(S(=O)(=O)N[C@@H](Cc2ccccc2)C(=O)CCl)cc1 [TPCK, N α-tosyl-l-phenylalanine chloromethyl ketone, reference compound] | – | – | – | – | – | 4.09 ± 0.12 | –
C=C1C2=C(C(=O)N1OC)[C@H](O)[C@@](C)(O)[C@H](CCCCC)O2 [phaeosphaeride A] | – | – | – | – | – | – | showed STAT3 inhibition; also recorded: showed STAT3 inhibitory activity

More lines, main results first:

IC50 (iNOS) [µM] | SMILES | IC50 at 20 h [1] [µM] | IC50 at 6 h [2] [µM] | inhibition of E. coli JW2496 (E. coli JW2496 (∆bamB)) | IC50 (NF-κB; [3]) [µM] | IC50 (NF-κB; TNF-α (2 ng/mL) induced NF-κB activity) [µM] | STAT3 inhibition (STAT3)
43.2 ± 0.7 | CCCCC[C@@H]1OC2=C(C(=O)N(OC)[C@@H]2CSC[C@@H](O)C(=O)O)[C@@H](O)[C@@]1(C)O [Compound 2, Paraphaeosphaeride F] | > 50 | > 50 | – | – | – | –
16.1 ± 6.6 | CCCCC[C@@H]1OC2=C(C(=O)N(OC)[C@@H]2C[S@+]([O-])C[C@@H](O)C(=O)O)[C@H](O)[C@@]1(C)O [Compound 3, Paraphaeosphaeride G] | > 50 | > 50 | – | 1.5 | – | –
